From patent publication US8541581B2, “Inhibitors of fatty acid amide hydrolase” (Infinity Pharmaceuticals, Inc., priority 2009, dated 2013)

The molecules below were run against T1, human FAAH (Homo sapiens, UniProt O00519) (assay: Human FAAH fluorescence-based inhibition assay (AMC Arachidonoyl Amide hydrolysis)). Details: human FAAH from transfected COS-7 cells; 20 μM AMC-Arachidonoyl substrate; 30 min preincubation, 4 hours at room temperature.
T1 construct: host or cells: COS-7 cells, transient transfection; 13,000 g membrane fraction solubilized in 1% Triton X-100
T1 sequence (O00519 1-579): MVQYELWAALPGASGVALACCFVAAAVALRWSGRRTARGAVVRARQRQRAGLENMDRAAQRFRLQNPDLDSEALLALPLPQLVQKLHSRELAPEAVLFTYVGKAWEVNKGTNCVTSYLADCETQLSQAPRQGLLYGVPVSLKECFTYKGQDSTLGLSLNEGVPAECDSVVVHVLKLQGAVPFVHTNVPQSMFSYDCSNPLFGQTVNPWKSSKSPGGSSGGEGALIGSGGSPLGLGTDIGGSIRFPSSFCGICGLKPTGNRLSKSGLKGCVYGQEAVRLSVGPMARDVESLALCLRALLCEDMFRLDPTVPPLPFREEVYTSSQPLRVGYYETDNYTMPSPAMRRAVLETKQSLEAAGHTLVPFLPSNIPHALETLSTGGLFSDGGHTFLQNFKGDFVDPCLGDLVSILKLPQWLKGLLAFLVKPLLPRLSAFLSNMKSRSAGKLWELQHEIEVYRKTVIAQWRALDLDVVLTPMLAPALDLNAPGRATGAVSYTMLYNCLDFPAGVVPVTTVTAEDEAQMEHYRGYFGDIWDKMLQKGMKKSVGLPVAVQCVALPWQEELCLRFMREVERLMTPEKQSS
Assay type: biochemical
Experimental: Exemplary compounds are set forth in the Examples provided below. Compounds were assayed as inhibitors of human FAAH using the method described in detail in Example 19.
The following assays can be used to determine the inhibition of FAAH: (1) a fluorescence-based assay (Manjunath et al., Analytical Biochemistry (2005) 343:143-151); and (2) a microsome-based fluorescent assay (Wang et al., Biomolecular Screening (2006) 1-9).
COS-7 cells were split the day before, 1:5 into 150 mm×25 mm cell culture dishes (Corning Inc., Cat. No. 430599). Transient transfection took place at 30-40% confluency according to FuGENE 6 Transfection Reagent (Roche, Cat. No. 11814 443 001).
The FuGENE transfection 6 reagent (45 uL) was added to 1410 μL of media (DMEM, serum free without pen/strep) in a 15 mL conical tube and incubated at room temp for 5 minutes, followed by the addition of FAAH plasmid DNA ([…]) (OriGene Cat. No. TC119221, Genbank Accession No. NM_001441.1, 0.67 ug/uL) and a further incubation of 15 minutes at room temperature. The resulting solution was added into one dish of 30-40% confluent COS-7 cells in a drop-wise manner. The COS-7 cell dish was subsequently incubated for 48 hours. The cells were then harvested.
Media was aspirated from the dishes and the cells rinsed with 10 mL PBS. The PBS was removed and 3 mL of PBS added to the dish. The dish was scraped to resuspend the cells, and the subsequent cell suspension collected into a 15 mL conical tube. The cells were pelleted by centrifugation at 1200 rpm for 5 minutes in a bench top centrifuge. PBS was removed and the cell pellet snap frozen in liquid nitrogen and stored at −80° C.
COS-7 Cells—FAAH Purification: • (1) Fractionation: Frozen cell pellets from transient transfections were thawed on ice and resuspended in 12.5 mM Hepes pH 8.0, 100 mM NaCl, 1 mM EDTA (10 mL/0.2 g cell pellet). The pellets were dounce homogenized and then sonicated to produce cell extract. The cell extract was subsequently centrifuged at 1000 g to remove cellular debris. The pellet was discarded and the supernatant centrifuged at 13,000 g for 20 minutes. The pellet contained membrane bound FAAH. The supernatant was discarded and the pellet resolubilized. • (2) Re-solubilization: The fraction of interest, (13,000 g, membrane fraction) was re-suspended in 2.3 mL re-suspension buffer (20 mM Hepes pH 7.8, 10% v/v Glycerol, 1 mM EDTA, 1% Triton X-100) and the sample incubated on ice for 1 hour and then centrifuged to remove any particulate matter. The supernatant containing solubilized human FAAH was aliquoted and snap frozen in liquid nitrogen and stored at −80° C. until use. • (3) Characterization: Protein Concentration determined by Bradford assay. • SDS gel and Western blot to confirm presence of FAAH • FAAH activity assay • Km determination—96-well assay • Linear dependence—96-well assay • Standard compound Ki determination—384-well assay
Rat FAAH biochemical assays were carried out in a 96 well flat bottom black non-treated polystyrene plates (Corning Costar Catalogue #3915). FAAH reaction buffer: 50 mM Hepes (pH 7.5), 1 mM EDTA, 0.2% Triton X-100. FAAH substrate-AMC Arachidonoyl Amide (Cayman Chemicals Company, Catalog #10005098). The reaction was read in an Envision microtiter plate reader [Excitation filter 355 nm (40 nm bandpass); Emission filter 460 nm (25 nm bandpass)]. The raw fluorescence was plotted on the y axis and the inhibitor concentration on the x axis to give a dose response inhibition curve. The data was fitted to a single site competitive inhibition equation, fixing the Km for the rat and human enzyme to 12 μM and 9 μM respectively.
The principle of this assay was the hydrolysis of AMC-Arichodonoyl, a fluorescent analogue of Anandamide, which results in the formation of Arachidonic acid and AMC. The formation of AMC results in an increase in fluorescence (see, for example, Manjunath et al., Analytical Biochemistry (2005) 343:143-151; and Wang et al., Biomolecular Screening (2006) 1-9). […]

| Compound | Ki [nM] |
| --- | --- |
| CC(C)(C)OC(=O)N1CC=C(B(O)O)CC1 [Example 1] | 100 to 1000 |
| CC(C)(C)OC(=O)N1CCC(B(O)O)CC1 [Example 8] | 10 to 100 |
| O=C(c1ccc(Cl)cc1)N1CC=C(B(O)O)CC1 [Example 4] | 10 to 100 |
| O=C(c1ccc2ccccc2n1)N1CCC(B(O)O)CC1 [Example 13] | 100 to 1000 |
| O=C(OCc1ccccc1)N1CC=C(B(O)O)CC1 [Example 2] | 10 to 100 |
| Cc1c(C(=O)N2CC=C(B(O)O)CC2)sc2ccccc12 [Example 5] | 10 to 100 |
| O=C(c1ccc(Cl)cc1)N1CCC(B(O)O)CC1 [Example 11] | 100 to 1000 |
| O=C(c1cnc2ccccc2c1)N1CCC(B(O)O)CC1 [Example 12] | 100 to 1000 |
| Cc1c(CC(=O)N2CC=C(B(O)O)CC2)sc2ccccc12 [Example 6] | 10 to 100 |
| Cc1ccc(S(=O)(=O)N2CCC(B(O)O)CC2)cc1 [Example 16] | 100 to 1000 |
| O=C(NCc1ccccc1)N1CC=C(B(O)O)CC1 [Example 7] | 10 to 100 |
| O=C(OCc1ccccc1)N1CCC(B(O)O)CC1 [Example 9] | 10 to 100 |

Now from value to molecule:

| Ki [nM] | Compound |
| --- | --- |
| 10 to 100 | O=C(CCCCc1ccccc1)N1CCC(B(O)O)CC1 [Example 10] |
| > 1000 | O=C([C@H]1CCCN1)N1CCC(B(O)O)CC1 [Example 15] |
| 10 to 100 | Cc1c(CN2CCC(B(O)O)CC2)sc2ccccc12 [Example 18] |
| > 1000 | OB(O)C1CCN(Cc2ccccc2)CC1 [Example 17] |
| > 1000 | CC(=O)N1CC=C(B(O)O)CC1 [Example 3] |
| > 1000 | O=C(CNCc1ccccc1)N1CCC(B(O)O)CC1 [Example 14] |
